Tests used:
[1] = molecular target: EIF2AK3 (PERK) catalytic domain (amino acids 536-1116) (Homo sapiens (Human), UniProt Q9NZJ5); experiment: PERK in vitro activity assay (isolated), TR-FRET kinase assay; conditions: isolated PERK enzyme, 1.5 μM ATP, GFP-eIF2a substrate; read-out: Biochemical IC50
Method in brief: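 Human PERK catalytic domain (aa 536-1116) with 100-200 nM GFP-eIF2a in 50 mM HEPES pH 7.5, 10 mM MgCl2, 1.0 mM EGTA, 0.01% Brij-35; enzyme-started reaction run 45 min at room temperature. Stopped with 10 mM EDTA, 2 nM Tb-anti-phospho-eIF2a added for 90 min; IC50 from TR-FRET ratio by 4-parameter logistic fit.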

PERK = PERK (Homo sapiens (Human), UniProt Q9NZJ5); experiment: PERK cellular assay (TR-FRET, HEK293-EGFP-eIF2α cells, tunicamycin-induced ER stress); format: cell-based; conditions: tunicamycin 2 hours, read-out: Cellular IC50 (μM) (EIF2a)
Method in brief: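 Cells pre-incubated with inhibitor 30 min at 37 °C, then ER stress induced with […] tunicamycin for 2 h. TR-FRET read on lysates; ratio normalized to DMSO control as percent inhibition over a 10-point, 3-fold dilution series; IC50 from 4-parameter logistic fit.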

Sequence of PERK (Q9NZJ5 30-1116): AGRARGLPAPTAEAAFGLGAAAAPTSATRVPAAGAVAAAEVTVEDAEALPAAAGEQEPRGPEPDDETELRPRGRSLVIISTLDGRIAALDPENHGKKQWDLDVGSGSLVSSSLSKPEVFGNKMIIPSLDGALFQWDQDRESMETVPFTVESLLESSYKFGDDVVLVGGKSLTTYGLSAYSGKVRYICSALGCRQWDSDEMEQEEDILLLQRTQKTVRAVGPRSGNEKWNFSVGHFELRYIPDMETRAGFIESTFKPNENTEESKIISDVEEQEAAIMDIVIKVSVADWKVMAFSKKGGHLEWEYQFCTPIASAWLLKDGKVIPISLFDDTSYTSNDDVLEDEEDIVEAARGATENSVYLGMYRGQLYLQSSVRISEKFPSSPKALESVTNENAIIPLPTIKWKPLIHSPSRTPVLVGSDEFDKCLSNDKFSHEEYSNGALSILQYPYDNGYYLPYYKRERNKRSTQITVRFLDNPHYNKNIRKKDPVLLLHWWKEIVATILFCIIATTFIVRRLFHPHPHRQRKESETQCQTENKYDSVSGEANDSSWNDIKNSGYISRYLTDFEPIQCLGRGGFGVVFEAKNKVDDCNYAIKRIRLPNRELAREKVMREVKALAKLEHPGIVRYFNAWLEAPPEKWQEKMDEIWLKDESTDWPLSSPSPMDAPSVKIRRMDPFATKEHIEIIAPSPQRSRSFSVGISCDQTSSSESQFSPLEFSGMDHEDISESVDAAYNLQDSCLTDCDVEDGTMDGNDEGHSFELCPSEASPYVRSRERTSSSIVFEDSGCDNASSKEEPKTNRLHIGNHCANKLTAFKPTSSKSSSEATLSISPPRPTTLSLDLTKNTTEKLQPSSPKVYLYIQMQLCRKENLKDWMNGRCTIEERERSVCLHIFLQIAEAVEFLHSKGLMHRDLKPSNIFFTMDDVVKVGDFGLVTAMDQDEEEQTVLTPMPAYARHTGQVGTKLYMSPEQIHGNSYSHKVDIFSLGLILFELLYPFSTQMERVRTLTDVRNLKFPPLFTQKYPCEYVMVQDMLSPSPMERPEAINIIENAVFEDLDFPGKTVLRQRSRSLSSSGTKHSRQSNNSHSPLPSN
Sequence of EIF2AK3 (PERK) catalytic domain (amino acids 536-1116) (Q9NZJ5 536-1116): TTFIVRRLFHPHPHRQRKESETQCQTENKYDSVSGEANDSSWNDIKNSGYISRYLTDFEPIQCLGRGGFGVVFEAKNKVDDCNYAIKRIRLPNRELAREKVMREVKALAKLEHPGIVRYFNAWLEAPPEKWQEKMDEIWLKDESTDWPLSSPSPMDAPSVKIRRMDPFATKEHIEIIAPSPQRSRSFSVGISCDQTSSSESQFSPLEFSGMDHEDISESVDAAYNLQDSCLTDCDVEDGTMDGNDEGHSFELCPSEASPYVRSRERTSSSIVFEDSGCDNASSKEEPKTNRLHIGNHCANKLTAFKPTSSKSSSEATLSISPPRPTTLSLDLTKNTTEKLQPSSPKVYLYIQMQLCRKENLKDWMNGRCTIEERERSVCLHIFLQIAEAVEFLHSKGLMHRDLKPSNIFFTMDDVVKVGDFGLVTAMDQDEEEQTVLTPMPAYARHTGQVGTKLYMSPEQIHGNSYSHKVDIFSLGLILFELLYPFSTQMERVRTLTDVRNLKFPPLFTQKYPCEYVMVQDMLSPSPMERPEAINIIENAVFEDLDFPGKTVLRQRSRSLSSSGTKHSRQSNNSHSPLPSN

Row | Compound | IC50 [1] | IC50 (PERK)
1 | Cc1cc(NC(=O)CC2CCCCC2)ccc1-c1cnc(N)c(C(=O)NC(C)C)c1 [Example 216, 2-amino-5-(4-(2-cyclohexylacetamido)-2-methylphenyl)-N-isopropylnicotinamide] | 1 to 2 µM | > 5 µM
2 | Cc1c(-c2cnc(N)c(C(=O)NC3COC3)c2)ccc(NC(=O)C(O)c2cc(F)cc(F)c2)c1F (stereo not shown) [Example 121, 2-amino-5-(4-(2-(3,5-difluorophenyl)-2-hydroxyacetamido)-3-fluoro-2-methylphenyl)-N-(oxetan-3-yl)nicotinamide] | 0.001 to 0.025 µM | 0.001 to 0.025 µM
3 | CCc1cc(NC(=O)C(O)c2cc(F)cc(F)c2)ccc1-c1cnc(N)c(C(=O)NC2CC2)c1 (stereo not shown) [Example 103, 2-amino-N-cyclopropyl-5-(4-(2-(3,5-difluorophenyl)-2-hydroxyacetamido)-2-ethylphenyl) nicotinamide] | 0.026 to 0.05 µM | 0.101 to 0.25 µM
4 | CCNC(=O)c1cc(-c2ccc(NC(=O)C(O)c3cc(F)cc(F)c3)cc2CC)cnc1N (stereo not shown) [Example 99, 2-amino-5-(4-(2-(3,5-difluorophenyl)-2-hydroxyacetamido)-2-ethylphenyl)-N-ethylnicotinamide] | 0.026 to 0.05 µM | 0.101 to 0.25 µM
5 | CC(C)NC(=O)c1cc(-c2ccc(NC(=O)C(O)c3cc(F)cc(F)c3)cc2Cl)cnc1N (single isomer, unassigned) [Example 35] | 0.051 to 0.1 µM | 0.101 to 0.25 µM
6 | CCNC(=O)c1cc(-c2ccc(NC(=O)C(O)c3cc(F)cc(F)c3)cc2Cl)cnc1N (stereo not shown) [Example 83, 2-amino-5-(2-chloro-4-(2-(3,5-difluorophenyl)-2-hydroxyacetamido)phenyl)-N-ethylnicotinamide] | 0.001 to 0.025 µM | 0.251 to 0.5 µM

Now from value to molecule:

Row | IC50 [1] | IC50 (PERK) | Compound
7 | 2 to 3 µM | 1 to 2 µM | Cc1cc(NC(=O)Cc2ccc(C(F)(F)F)cc2)ccc1-c1cnc(N)c(C(=O)NC(C)C)c1 [Example 203, 2-amino-N-isopropyl-5-(2-methyl-4-(2-(4-(trifluoromethyl)phenyl)acetamido)phenyl) nicotinamide]
8 | 0.101 to 0.25 µM | 2 to 3 µM | Cc1cc(NC(=O)C(C)(O)c2ccccc2)ccc1-c1cnc(N)c(C(=O)NC(C)C)c1 (stereo not shown) [Example 3, 2-amino-5-(4-(2-hydroxy-2-phenylpropanamido)-2-methylphenyl)-N-isopropylnicotinamide]
9 | 0.101 to 0.25 µM | 2 to 3 µM | Cc1cc(NC(=O)C(F)(F)c2ccccc2)ccc1-c1cnc(N)c(C(=O)NC(C)C)c1 [Example 183, 2-amino-5-(4-(2,2-difluoro-2-phenylacetamido)-2-methylphenyl)-N-isopropylnicotinamide]
10 | 0.501 to 1 µM | 0.501 to 1 µM | Cc1cc(NC(=O)Cc2ccc(Cl)cc2)ccc1-c1cnc(N)c(C(=O)NC(C)C)c1 [Example 200, 2-amino-5-(4-(2-(4-chlorophenyl)acetamido)-2-methylphenyl)-N-isopropylnicotinamide]
11 | 0.101 to 0.25 µM | 0.251 to 0.5 µM | CCc1cccc(C(O)C(=O)Nc2ccc(-c3cnc(N)c(C(=O)NC(C)C)c3)c(C)c2)c1 (single isomer, unassigned) [Example 73, 2-amino-5-(4-(2-(3-ethylphenyl)-2-hydroxyacetamido)-2-methylphenyl)-N-isopropylnicotinamide]
12 | 0.051 to 0.1 µM | 1 to 2 µM | Cc1cc(NC(=O)Cc2ccc(F)cc2)ccc1-c1cnc(N)c(C(=O)NC(C)C)c1 [Example 191, 2-amino-5-(4-(2-(4-fluorophenyl)acetamido)-2-methylphenyl)-N-isopropylnicotinamide]
13 | 0.101 to 0.25 µM | 2 to 3 µM | COc1ccccc1CC(=O)Nc1ccc(-c2cnc(N)c(C(=O)NC(C)C)c2)c(C)c1 [Example 192, 2-amino-N-isopropyl-5-(4-(2-(2-methoxyphenyl)acetamido)-2-methylphenyl) nicotinamide]
14 | 0.251 to 0.5 µM | 2 to 3 µM | Cc1cc(NC(=O)Cc2cccc3cnccc23)ccc1-c1cnc(N)c(C(=O)NC(C)C)c1 [Example 211, 2-amino-N-isopropyl-5-(4-(2-(isoquinolin-5-yl)acetamido)-2-methylphenyl) nicotinamide]
